Experiments:
[1] = molecular target: T1, recombinant human Cox-1 (r-hu Cox1) (Homo sapiens, UniProt P23219); assay: Recombinant human PGHS-1 enzyme assay (RHUCX1); assay type: biochemical; settings: read-out: RHUCX1 % Inh. at Dose
T1 construct: made in house; host or cells: baculovirus/Sf9 insect cells (microsomes)
Summary of the method: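 PGE2 production measured by enzyme immunoassay with standards in the same milieu. Inhibition was computed versus control group mean and IC50 estimated by linear regression.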

[2] = molecular target: T2, Cox-1 in Monocyte U937 cells (Homo sapiens, UniProt P23219); assay: Monocyte U937 cell Cox-1 assay; assay type: cell-based; settings: read-out: U937 IC50 (parenthetical value)
T2 construct: endogenous in cells; host or cells: U937 monocyte cells (ATCC)
Procedure: Human amnionic WISH cells were grown to 80% confluence in 48 well plates. Following removal of the growth medium and two washings with Geys Balanced Salt Solutn, 5 ng IL-1β /ml (UBI, Lake Placid, N.Y.) was added to the cells with or without test compound in DMSO (0.01% v/v) in Neuman-Tytell Serumless Medium (GIBCO, Grand Island, N.Y.). Following an 18 hour incubation to allow for the maximal induction of PGHS-2, the conditioned medium was removed and assayed for PGE2 content by EIA analysis as described above.
Monocyte U937 (ATCC, Rockville, Md.) cells were grown in a similar fashion to the WISH cells. After incubation, the conditioned medium was removed and assayed for […] by EIA analysis as described above.

[3] = molecular target: T3, Human Whole Platelet Cyclooxygenase-1 (Homo sapiens, UniProt P23219); assay: Human Whole Platelet Cyclooxygenase-1 assay (HWPX); assay type: cell-based; settings: read-out: HWPX IC50 (parenthetical value)
T3 construct: from tissue; host or cells: human blood: isolated platelets (A4) or heparinised whole blood (A9)
Summary of the method: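 Thromboxane production was measured with a commercial kit after stimulation of washed human platelets (ACD-anticoagulated volunteer blood) by 8.8 μM final A23187 for 10 min. Test compounds were added 10 min before stimulus; cold 6 mM EDTA terminated the reaction.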

T1 sequence (P23219 24-599): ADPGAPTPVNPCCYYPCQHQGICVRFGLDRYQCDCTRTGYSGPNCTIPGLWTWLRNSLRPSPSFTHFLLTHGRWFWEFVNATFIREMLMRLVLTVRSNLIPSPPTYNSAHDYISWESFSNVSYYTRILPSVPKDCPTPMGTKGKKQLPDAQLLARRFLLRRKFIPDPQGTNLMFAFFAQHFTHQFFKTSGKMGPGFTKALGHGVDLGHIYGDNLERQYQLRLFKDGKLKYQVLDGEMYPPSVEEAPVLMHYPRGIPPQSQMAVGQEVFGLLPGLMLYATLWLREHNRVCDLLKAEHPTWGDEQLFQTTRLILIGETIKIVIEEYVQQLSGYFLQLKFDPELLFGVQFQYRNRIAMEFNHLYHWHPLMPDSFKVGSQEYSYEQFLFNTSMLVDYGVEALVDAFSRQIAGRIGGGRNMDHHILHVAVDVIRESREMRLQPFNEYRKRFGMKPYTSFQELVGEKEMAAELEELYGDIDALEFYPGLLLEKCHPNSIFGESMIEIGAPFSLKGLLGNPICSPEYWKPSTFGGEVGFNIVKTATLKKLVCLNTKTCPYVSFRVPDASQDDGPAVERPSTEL
T3 sequence (P23219 24-599): as above
T2 sequence (P23219 24-599): as above

inhibition at 10 µM ([1]; 10 μM): 40% | inhibition at 30 µM ([1]; 30 μM): 62% | IC50 [2]: 3.8 µM | IC50 [3]: 2100 nM
SMILES: NS(=O)(=O)c1ccc(-c2cnn(-c3ccc(F)cc3)c(=O)c2-c2ccc(F)cc2)cc1 [Example 89]

Reference: US20020028938A1, “Prostaglandin endoperoxide H synthase biosynthesis inhibitors” (priority 1997, published 2002)
